The values that follow are results of earlier work, collected in PMC9311059, “P‐Glycoprotein and Breast Cancer Resistance Protein Transporter Inhibition by Cyclosporine and Quinidine on the Pharmacokinetics of Oral Rimegepant in Healthy Subjects” (Clinical Pharmacology in Drug Development, 2022).

The conditions of this data set: oral midazolam coadministered with cyclosporine; cited from earlier work.

`Cc1ncc2n1-c1ccc(Cl)cc1C(c1ccccc1F)=NC2` [midazolam]: the “change in midazolam Cmax” value is reported as “no meaningful change” and the “increase in midazolam AUC” value was 46%.
